pEC50: −log10 of the molar value.
What was measured:
[1] = tested on: recombinant NL4-3 virus (Renilla luciferase in nef); experiment: HIV cell culture assay (antiviral activity, luciferase readout in MT-2 cells); format: cell-based; conditions: Renilla, NL43
Protocol: HIV cell culture assay—MT=2 cells, 293T cells and the proviral DNA clone of NL4-3 virus were obtained from the NIH AIDS Research and Reference Reagent Program. MT=2 cells were propagated in RPMI 1640 media supplemented with 10% heat inactivated fetal bovine serum (FBS), […] penicillin G and up to 100 units/mL streptomycin. The 293T cells were propagated in DMEM media supplemented with 10% heat inactivated FBS, […] penicillin G and […] streptomycin. A recombinant NL4-3 proviral clone, in which a section of the nef gene was replaced with the Renilla luciferase gene, was used to make the reference virus used in these studies. The recombinant virus was prepared through transfection of the recombinant NL4-3 proviral clone into 293T cells using Transit-293 Transfection Reagent from Mirus Bio LLC (Madison, Wis.). Supernatent was harvested after 2-3 days and the amount of virus present was titered in MT=2 cells using luciferase enzyme activity as a marker by measuring luciferase enzyme activity. Luciferase was quantitated using the EnduRen Live Cell Substrate from Promega (Madison, Wis.). Antiviral activities of compounds toward the recombinant virus were quantified by measuring luciferase activity in MT=2 cells infected for 4-5 days with the recombinant virus in the presence of serial dilutions of the compound.
The 50% effective concentration (EC50) was calculated by using the exponential form of the median effect equation where (Fa)=1/[1+(ED50/drug conc.)m] (Johnson V A, Byington R T. Infectivity Assay. In Techniques in HIV Research. ed. Aldovini A, Walker B D. 71-76. New York: Stockton Press. 1990). The 50% inhibitory concentration (EC50) was calculated by using the exponential form of the median effect equation where percent inhibition=1/[1+(EC50/drug concentration)m], where m is a parameter that reflects the slope of the concentration-response curve.

[2] = Compound cytotoxicity, XTT-based colorimetric assay; format: cell-based; conditions: human; uninfected MT2 cells, day 4, XTT
Protocol: Compound cytotoxicity and the corresponding CC50 values were determined using the same protocol as described in the antiviral assay except that uninfected cells were used. Cytotoxicity was assessed on day 4 in uninfected MT2 cells by using an XTT (2,3-bis[2-Methoxy-4-nitro-5-sulfophenyl]-2H-tetrazolium-5-carboxyanilide inner salt)-based colorimetric assay (Sigma-Aldrich, St Louis, Mo.).

Row | SMILES | pEC50 [1] | CC50 at 4 days [2]
1 | Cn1nc(NS(C)(=O)=O)c2c(Cl)ccc(-n3c([C@H](Cc4cc(F)cc(F)c4)NC(=O)Cn4nc(C(F)F)c5c4C(F)(F)[C@@H]4C[C@H]54)nc4cc(-c5ncc(F)cc5Cl)ccc4c3=O)c21 (atropisomer, axis not shown; (P)) [Example 10, N—((S)-1-((3P)-3-(4-chloro-1-methyl-3-(methylsulfonamido)-1H-indazol-7-yl)-7-(3-chloro-5-fluoropyridin-2-yl)-4-oxo-3,4-dihydroquinazolin-2-yl)-2-(3,5-difluorophenyl)ethyl)-2-((3bS,4aR)-3-(difluoromethyl)-5,5-difluoro-3b,4,4a,5-tetrahydro-1H-cyclopropa[3,4]cyclopenta[1,2-c]pyrazol-1-yl)acetamide] | 9.96 | 
2 | CS(=O)(=O)Nc1nn(CCCF)c2c(-n3c([C@H](Cc4cc(F)cc(F)c4)NC(=O)Cn4nc(C(F)F)c5c4C(F)(F)[C@@H]4C[C@H]54)nc4cc(-c5ccn(CC(F)(F)C(F)F)n5)ccc4c3=O)ccc(Cl)c12 [Example 67, N—((S)-1-((3P)-3-(4-chloro-1-(3-fluoropropyl)-3-(methylsulfonamido)-1H-indazol-7-yl)-4-oxo-7-(1-(2,2,3,3-tetrafluoropropyl)-1H-pyrazol-3-yl)-3,4-dihydroquinazolin-2-yl)-2-(3,5-difluorophenyl)ethyl)-2-((3bS,4aR)-3-(difluoromethyl)-5,5-difluoro-3b,4,4a,5-tetrahydro-1H-cyclopropa[3,4]cyclopenta[1,2-c]pyrazol-1-yl)acetamide] | 10.31 | > 100000 pM
3 | Cc1cc(-c2ccc3c(=O)n(-c4ccc(Cl)c5c(NS(C)(=O)=O)nn(C)c45)c([C@H](Cc4cc(F)cc(F)c4)NC(=O)Cn4nc(C(F)F)c5c4C(F)(F)[C@@H]4C[C@H]54)nc3c2)nn1CC(F)(F)C(F)(F)F (atropisomer, axis not shown; (P)) [Example 60, N—((S)-1-((3P)-3-(4-chloro-1-methyl-3-(methylsulfonamido)-1H-indazol-7-yl)-7-(5-methyl-1-(2,2,3,3,3-pentafluoropropyl)-1H-pyrazol-3-yl)-4-oxo-3,4-dihydroquinazolin-2-yl)-2-(3,5-difluorophenyl)ethyl)-2-((3bS,4aR)-3-(difluoromethyl)-5,5-difluoro-3b,4,4a,5-tetrahydro-1H-cyclopropa[3,4]cyclopenta[1,2-c]pyrazol-1-yl)acetamide] | 9.68 | > 100000 pM
4 | Cn1nc(NS(C)(=O)=O)c2c(Cl)ccc(-n3c([C@H](Cc4cc(F)cc(F)c4)NC(=O)Cn4nc(C(F)F)c5c4C(F)(F)[C@@H]4C[C@H]54)nc4cc(-c5ccc6scnc6c5)ccc4c3=O)c21 (atropisomer, axis not shown; (P)) [Example 45, N—((S)-1-(7-(benzo[d]thiazol-5-yl)-(3P)-3-(4-chloro-1-methyl-3-(methylsulfonamido)-1H-indazol-7-yl)-4-oxo-3,4-dihydroquinazolin-2-yl)-2-(3,5-difluorophenyl)ethyl)-2-((3bS,4aR)-3-(difluoromethyl)-5,5-difluoro-3b,4,4a,5-tetrahydro-1H-cyclopropa[3,4]cyclopenta[1,2-c]pyrazol-1-yl)acetamide] | 9.36 | > 100000 pM
5 | Cn1nc(NS(C)(=O)=O)c2c(Cl)ccc(-n3c([C@H](Cc4cc(F)cc(F)c4)NC(=O)Cn4nc(C(F)F)c5c4C(F)(F)[C@@H]4C[C@H]54)nc4cc(-c5cccc(C(C)(F)F)n5)ccc4c3=O)c21 (atropisomer, axis not shown; (P)) [Example 28, N—((S)-1-((3P)-3-(4-chloro-1-methyl-3-(methylsulfonamido)-1H-indazol-7-yl)-7-(6-(1,1-difluoroethyl)pyridin-2-yl)-4-oxo-3,4-dihydroquinazolin-2-yl)-2-(3,5-difluorophenyl)ethyl)-2-((3bS,4aR)-3-(difluoromethyl)-5,5-difluoro-3b,4,4a,5-tetrahydro-1H-cyclopropa[3,4]cyclopenta[1,2-c]pyrazol-1-yl)acetamide] | 9.92 | > 100000 pM
6 | Cc1cc(-c2ccc3c(=O)n(-c4ccc(Cl)c5c(NS(C)(=O)=O)nn(C)c45)c([C@H](Cc4cc(F)cc(F)c4)NC(=O)Cn4nc(C(F)F)c5c4C(F)(F)[C@@H]4C[C@H]54)nc3c2)nn1CC(F)(F)C(F)F (atropisomer, axis not shown; (P)) [Example 57, N—((S)-1-((3P)-3-(4-chloro-1-methyl-3-(methylsulfonamido)-1H-indazol-7-yl)-7-(5-methyl-1-(2,2,3,3-tetrafluoropropyl)-1H-pyrazol-3-yl)-4-oxo-3,4-dihydroquinazolin-2-yl)-2-(3,5-difluorophenyl)ethyl)-2-((3bS,4aR)-3-(difluoromethyl)-5,5-difluoro-3b,4,4a,5-tetrahydro-1H-cyclopropa[3,4]cyclopenta[1,2-c]pyrazol-1-yl)acetamide] | 9.89 | > 100000 pM
7 | Cn1nc(NS(C)(=O)=O)c2c(Cl)ccc(-n3c([C@H](Cc4cc(F)cc(F)c4)NC(=O)Cn4nc(C(F)F)c5c4C(F)(F)[C@@H]4C[C@H]54)nc4cc(-c5ccnc(CF)n5)ccc4c3=O)c21 (atropisomer, axis not shown; (P)) [Example 55, N—((S)-1-((3P)-3-(4-chloro-1-methyl-3-(methylsulfonamido)-1H-indazol-7-yl)-7-(2-(fluoromethyl)pyrimidin-4-yl)-4-oxo-3,4-dihydroquinazolin-2-yl)-2-(3,5-difluorophenyl)ethyl)-2-((3bS,4aR)-3-(difluoromethyl)-5,5-difluoro-3b,4,4a,5-tetrahydro-1H-cyclopropa[3,4]cyclopenta[1,2-c]pyrazol-1-yl)acetamide] | 10.25 | > 100000 pM
8 | Cc1cc(C#N)nc(-c2ccc3c(=O)n(-c4ccc(Cl)c5c(NS(C)(=O)=O)nn(C)c45)c([C@H](Cc4cc(F)cc(F)c4)NC(=O)Cn4nc(C(F)F)c5c4C(F)(F)[C@@H]4C[C@H]54)nc3c2)n1 (atropisomer, axis not shown; (P)) [Example 12, N—((S)-1-((3P)-3-(4-chloro-1-methyl-3-(methylsulfonamido)-1H-indazol-7-yl)-7-(4-cyano-6-methylpyrimidin-2-yl)-4-oxo-3,4-dihydroquinazolin-2-yl)-2-(3,5-difluorophenyl)ethyl)-2-((3bS,4aR)-3-(difluoromethyl)-5,5-difluoro-3b,4,4a,5-tetrahydro-1H-cyclopropa[3,4]cyclopenta[1,2-c]pyrazol-1-yl)acetamide] | 10.06 | > 500000 pM
9 | CC(F)(F)Cn1ccc(-c2ccc3c(=O)n(-c4ccc(Cl)c5c(NS(C)(=O)=O)nn(CC(F)F)c45)c([C@H](Cc4cc(F)cc(F)c4)NC(=O)Cn4nc(C(F)F)c5c4C(F)(F)[C@@H]4C[C@H]54)nc3c2)n1 (atropisomer, axis not shown; (P)) [Example 64, N—((S)-1-((3P)-3-(4-chloro-1-(2,2-difluoroethyl)-3-(methylsulfonamido)-1H-indazol-7-yl)-7-(1-(2,2-difluoropropyl)-1H-pyrazol-3-yl)-4-oxo-3,4-dihydroquinazolin-2-yl)-2-(3,5-difluorophenyl)ethyl)-2-((3bS,4aR)-3-(difluoromethyl)-5,5-difluoro-3b,4,4a,5-tetrahydro-1H-cyclopropa[3,4]cyclopenta[1,2-c]pyrazol-1-yl)acetamide] | 10.06 | > 100000 pM
10 | COCc1ccccc1-c1ccc2c(=O)n(-c3ccc(Cl)c4c(NS(C)(=O)=O)nn(C)c34)c([C@H](Cc3cc(F)cc(F)c3)NC(=O)Cn3nc(C(F)F)c4c3C(F)(F)[C@@H]3C[C@H]43)nc2c1 (atropisomer, axis not shown; (P)) [Example 19, N—((S)-1-((3P)-3-(4-chloro-1-methyl-3-(methylsulfonamido)-1H-indazol-7-yl)-7-(2-(methoxymethyl)phenyl)-4-oxo-3,4-dihydroquinazolin-2-yl)-2-(3,5-difluorophenyl)ethyl)-2-((3bS,4aR)-3-(difluoromethyl)-5,5-difluoro-3b,4,4a,5-tetrahydro-1H-cyclopropa[3,4]cyclopenta[1,2-c]pyrazol-1-yl)acetamide] | 9.80 | > 500000 pM
11 | Cn1nc(NS(C)(=O)=O)c2c(Cl)ccc(-n3c([C@H](Cc4cc(F)cc(F)c4)NC(=O)Cn4nc(C(F)F)c5c4C(F)(F)[C@@H]4C[C@H]54)nc4cc(-c5ccc(F)nc5F)ccc4c3=O)c21 (atropisomer, axis not shown; (P)) [Example 6, N—((S)-1-((3P)-3-(4-chloro-1-methyl-3-(methylsulfonamido)-1H-indazol-7-yl)-7-(2,6-difluoropyridin-3-yl)-4-oxo-3,4-dihydroquinazolin-2-yl)-2-(3,5-difluorophenyl)ethyl)-2-((3bS,4aR)-3-(difluoromethyl)-5,5-difluoro-3b,4,4a,5-tetrahydro-1H-cyclopropa[3,4]cyclopenta[1,2-c]pyrazol-1-yl)acetamide] | 10.33 | 
